# Where two headings read alike, the source gives them in different places.
# What was measured:
# [1] = test system: pSer473 Akt in A2780 cells; experiment: pSer473 Akt assay to monitor PI3K pathway in A2780 cells (Biological Method 2, MSD); type: cell-based; conditions: Homo sapiens, inhibition of Akt phosphorylation
# Method: In this method, an assay for measuring the PI3K-mediated pSer473-Akt status after treatment with representative inhibitor compounds of the invention is described.
# A2780 cells were cultured in DMEM supplemented with 10% FBS. L-glutamine, sodium pyruvate, and antibiotics. Cells were plated in the same medium at a density of 15,000 cells per well into 96 well tissue culture plates, with outside wells vacant, and allowed to adhere overnight.
# Test compounds supplied in DMSO were diluted further into DMSO at 500 times the desired final concentrations before dilution into culture media to 2 times the final concentrations. Equal volumes of 2× compounds were added to the cells in 96 well plates and incubated at 37° C. for one hour. The media and compounds were then removed, the plates chilled and cells lysed in a lysis buffer (150 mM NaCl, 20 mM Tris pH 7.5, 1 mM EDTA, 1 mM EGTA, 1% Triton X-100) supplemented with phosphatase and protease inhibitors. After thorough mixing, lysates were transferred to both pSer473Akt and total Akt assay plates from Meso Scale Discovery (MSD), and incubated overnight with shaking at 4° C.
# The assays were read on a SECTOR Imager 6000 instrument (Meso Scale Discovery). Ratios of the signal from pSer473Akt and total Akt assays were used to correct for any variability and the percent inhibition of pSer473Akt from the total signal seen in cells treated with compound versus DMSO alone was calculated and used to determine EC50 values for each compound.
# [2] = test system: A2780 ovarian cancer cells; experiment: Cellular proliferation in A2780 cells, Cell Titer Glo (Biological Method 4); type: cell-based; conditions: Homo sapiens
# Summary of the method: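 Viability after 72 h compound exposure (37 °C, 5% CO2) was read by Cell Titer Glo and an EC50 derived, each condition in duplicate. A2780 ovarian cells had been plated at 1,000 per well in DMEM/10% FBS at least 2 h beforehand.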
# PI3 kinase alpha = PI3 kinase alpha (Homo sapiens, UniProt P42336); experiment: PI3K ATP depletion assay (Biological Method 1, Assay 3; KinaseGlo luminescence); type: biochemical; conditions: ATP depletion assay, read-out: PI3 Kinase Alpha, IC50
# Summary of the method: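 Compound in DMSO was mixed with 10 nM PI3 kinase and 5 μg/mL phosphatidylinositol, and the reaction was started with 2 μM ATP. It ran to about 50% ATP depletion and was stopped with KinaseGlo.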
# [3] = ovarian cancer cell line A2780, Biological Method 4
# Sequence of PI3 kinase alpha (P42336 whole entry): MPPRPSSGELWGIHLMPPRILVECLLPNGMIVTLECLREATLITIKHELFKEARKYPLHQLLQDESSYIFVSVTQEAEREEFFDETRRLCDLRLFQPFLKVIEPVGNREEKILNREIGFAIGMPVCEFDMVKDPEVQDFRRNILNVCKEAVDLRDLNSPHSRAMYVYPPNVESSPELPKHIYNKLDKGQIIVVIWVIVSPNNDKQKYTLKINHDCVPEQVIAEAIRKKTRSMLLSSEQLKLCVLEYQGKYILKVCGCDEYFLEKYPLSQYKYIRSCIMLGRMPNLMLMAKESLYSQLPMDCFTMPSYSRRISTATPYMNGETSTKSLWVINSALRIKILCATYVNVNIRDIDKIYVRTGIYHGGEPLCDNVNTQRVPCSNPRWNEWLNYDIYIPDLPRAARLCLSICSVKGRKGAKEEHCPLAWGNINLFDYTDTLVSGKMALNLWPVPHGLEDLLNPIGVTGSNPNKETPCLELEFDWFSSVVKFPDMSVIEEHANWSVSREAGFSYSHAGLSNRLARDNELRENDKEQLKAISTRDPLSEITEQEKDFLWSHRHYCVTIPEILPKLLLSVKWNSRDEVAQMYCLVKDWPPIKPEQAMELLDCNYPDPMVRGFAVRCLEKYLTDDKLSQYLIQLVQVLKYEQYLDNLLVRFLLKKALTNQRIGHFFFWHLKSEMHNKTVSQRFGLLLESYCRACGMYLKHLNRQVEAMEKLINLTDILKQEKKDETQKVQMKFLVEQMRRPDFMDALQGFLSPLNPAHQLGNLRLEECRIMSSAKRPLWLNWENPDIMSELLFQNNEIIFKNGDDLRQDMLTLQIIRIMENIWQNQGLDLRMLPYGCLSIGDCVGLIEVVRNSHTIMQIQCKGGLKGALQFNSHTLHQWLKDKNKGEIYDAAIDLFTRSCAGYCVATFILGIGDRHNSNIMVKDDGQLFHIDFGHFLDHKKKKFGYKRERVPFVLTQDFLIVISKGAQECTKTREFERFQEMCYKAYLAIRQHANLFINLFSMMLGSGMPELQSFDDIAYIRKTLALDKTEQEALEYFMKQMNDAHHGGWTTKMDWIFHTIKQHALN
# Sequence of PI3 kinase alpha (P27986 whole entry partner): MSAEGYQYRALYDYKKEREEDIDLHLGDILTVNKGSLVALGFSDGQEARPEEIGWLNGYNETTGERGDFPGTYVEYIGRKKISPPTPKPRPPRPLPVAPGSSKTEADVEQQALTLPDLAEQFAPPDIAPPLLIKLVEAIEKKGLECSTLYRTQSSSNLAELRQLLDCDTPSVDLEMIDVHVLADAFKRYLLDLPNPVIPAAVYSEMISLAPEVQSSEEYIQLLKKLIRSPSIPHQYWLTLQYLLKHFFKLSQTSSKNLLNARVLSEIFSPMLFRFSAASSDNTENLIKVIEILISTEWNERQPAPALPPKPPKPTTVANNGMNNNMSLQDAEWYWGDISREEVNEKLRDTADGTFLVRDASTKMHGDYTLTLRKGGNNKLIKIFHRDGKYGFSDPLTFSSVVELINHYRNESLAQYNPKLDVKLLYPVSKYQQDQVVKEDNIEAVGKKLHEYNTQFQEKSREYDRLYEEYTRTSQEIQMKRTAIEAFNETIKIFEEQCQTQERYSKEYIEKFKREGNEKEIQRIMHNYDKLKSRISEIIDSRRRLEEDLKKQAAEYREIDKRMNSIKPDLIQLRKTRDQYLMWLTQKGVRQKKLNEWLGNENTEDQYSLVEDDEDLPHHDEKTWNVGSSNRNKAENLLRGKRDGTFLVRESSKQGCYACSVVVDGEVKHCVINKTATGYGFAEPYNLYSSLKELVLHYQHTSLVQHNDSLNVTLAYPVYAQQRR
EC50 ([1]; A2780 cells),EC50 ([2]; ovarian cancer cell line A2780),IC50 (PI3 kinase alpha),"EC50 ([1]; A2780, Biological Method 2)","EC50 [2, 3]",IC50 (PI3 kinase alpha; Biological Method 1),SMILES
< 1 µM,< 10 µM,< 1 µM,,,,CCOc1cc(Nc2cc(-c3cnc(N)cc3C(F)(F)F)nc(N3CCOCC3)n2)ccn1 [Compound 178]
< 1 µM,< 10 µM,< 1 µM,,,,CS(=O)(=O)N1CCC(Oc2cc(-c3cnc(N)nc3N)nc(N3CCOCC3)n2)CC1 [Compound 120]
< 1 µM,< 1 µM,< 1 µM,,,,Nc1cc(C(F)(F)F)c(-c2cc(OC3CCOCC3)nc(N3CCOCC3)n2)cn1 [Compound 24]
,,,< 1 µM,< 10 µM,< 1 µM,CC(=O)Nc1cc(-c2cnc(N)nc2)nc(N2CCOCC2)n1 [Compound 205]
< 1 µM,< 1 µM,< 1 µM,,,,Nc1ncc(-c2cc(Nc3ccc4c(c3)OCCO4)nc(N3CCOCC3)n2)c(C(F)(F)F)n1 [Compound 164]
< 1 µM,< 1 µM,< 1 µM,,,,CC(=O)N1CCC(Oc2cc(-c3cnc(N)nc3N)nc(N3CCOCC3)n2)CC1 [Compound 99]
< 1 µM,< 1 µM,< 1 µM,,,,CC(C)C(=O)N1CCC(Oc2cc(-c3cnc(N)nc3N)nc(N3CCOCC3)n2)CC1 [Compound 134]
< 1 µM,< 1 µM,,,,,Nc1ncc(-c2cc(Nc3cnc4ccccc4c3)nc(N3CCOCC3)n2)c(N)n1 [Compound 147]
< 1 µM,< 10 µM,< 1 µM,,,,Nc1cc(C(F)(F)F)c(-c2cc(N3CCOCC3Cc3ccccc3)nc(N3CCOCC3)n2)cn1 (centres unmarked) [Compound 113]
< 1 µM,< 10 µM,< 1 µM,,,,CS(=O)(=O)c1ccc(Nc2cc(-c3cnc(N)cc3C(F)(F)F)nc(N3CCOCC3)n2)cc1 [Compound 173]
< 1 µM,< 1 µM,< 1 µM,,,,Nc1ncc(-c2cc(Nc3ccc4nccnc4c3)nc(N3CCOCC3)n2)cn1 [Compound 38]
< 1 µM,< 1 µM,< 1 µM,,,,Cc1cc(Nc2cc(-c3cnc(N)nc3C(F)(F)F)nc(N3CCOCC3)n2)ccn1 [Compound 52]
< 1 µM,< 10 µM,< 1 µM,,,,CS(=O)(=O)c1ccccc1Nc1cc(-c2ccc(N)nc2)nc(N2CCOCC2)n1 [Compound 141]
< 1 µM,< 1 µM,< 1 µM,,,,CCN(CC)Cc1cnc(Nc2cc(-c3cnc(N)nc3N)nc(N3CCOCC3)n2)s1 [Compound 59]
< 1 µM,< 10 µM,< 1 µM,,,,CS(=O)(=O)c1ccc(Nc2cc(-c3cnc(N)cc3C(F)(F)F)nc(N3CCOCC3)n2)cn1 [Compound 128]
< 1 µM,< 10 µM,< 1 µM,,,,NC(=O)c1ccc(Nc2cc(-c3ccc(N)nc3)nc(N3CCOCC3)n2)cc1 [Compound 197]
,,,< 1 µM,< 10 µM,< 1 µM,COc1ccc(Nc2cc(-c3cnc(N)cc3C(F)(F)F)nc(N3CCOCC3)n2)cn1 [Compound 199]
< 1 µM,< 25 µM,< 1 µM,,,,COc1ccnc(Nc2cc(-c3ccc(N)nc3)nc(N3CCOCC3)n2)c1 [Compound 148]
< 1 µM,< 10 µM,< 1 µM,,,,Nc1ncc(-c2cc(Nc3ccccc3F)nc(N3CCOCC3)n2)cn1 [Compound 87]
< 1 µM,< 1 µM,,,,,Nc1ncc(-c2cc(Nc3cnc4ccccc4c3)nc(N3CCOCC3)n2)cn1 [Compound 1]
,,,< 1 µM,,< 1 µM,CN(C)CCOc1ccc(Nc2cc(-c3ccc(N)nc3)nc(N3CCOCC3)n2)cn1 [Compound 198]
< 1 µM,< 1 µM,,,,,Nc1ncc(-c2cc(Nc3cnc4ccccc4c3)nc(N3CCOCC3)n2)c(C(F)(F)F)n1 [Compound 192]
< 1 µM,< 1 µM,,,,,Nc1cc(Cl)c(-c2cc(Nc3cnc4ccccc4c3)nc(N3CCOCC3)n2)cn1 [Compound 175]
< 1 µM,< 1 µM,,,,,Nc1ncc(-c2cc(N3CCOCC3)nc(N3CCOCC3)n2)cn1 [Compound 100]
< 1 µM,< 1 µM,,,,,Nc1ncc(-c2cc(N3CCOCC3)nc(N3CCOCC3)n2)c(C(F)(F)F)n1 [Compound 85]
< 10 µM,< 1 µM,,,,,N#Cc1cc(N)ncc1-c1cc(Nc2cnc3ccccc3c2)nc(N2CCOCC2)n1 [Compound 5]
< 1 µM,< 10 µM,,,,,Nc1ncc(-c2cc(Nc3ccc(Oc4ccccc4)nc3)nc(N3CCOCC3)n2)cn1 [Compound 107]
< 1 µM,< 1 µM,,,,,Nc1ncc(-c2cc(N3CCOCC3)nc(N3CCOCC3)n2)c(=O)[nH]1 [Compound 77]

EC50 ([1]; A2780 cells),EC50 ([2]; ovarian cancer cell line A2780),IC50 (PI3 kinase alpha),"EC50 ([1]; A2780, Biological Method 2)","EC50 [2, 3]",IC50 (PI3 kinase alpha; Biological Method 1),SMILES
< 1 µM,< 10 µM,,,,,Nc1cc(Cl)c(-c2cc(N3CCOCC3)nc(N3CCOCC3)n2)cn1 [Compound 114]
< 1 µM,< 1 µM,,,,,N#Cc1cc(N)ncc1-c1cc(N2CCOCC2)nc(N2CCOCC2)n1 [Compound 162]
< 1 µM,< 1 µM,,,,,Cc1nc(N)ncc1-c1cc(Nc2cnc3ccccc3c2)nc(N2CCOCC2)n1 [Compound 96]
< 1 µM,< 1 µM,,,,,CN1CCC(Oc2ccc(Nc3cc(-c4cnc(N)nc4)nc(N4CCOCC4)n3)cn2)CC1 [Compound 37]
< 1 µM,< 10 µM,,,,,Nc1ncc(-c2ccnc(N3CCOCC3)n2)cn1 [Compound 132]
,,,,< 25 µM,< 1 µM,Nc1cc(C(F)(F)F)c(-c2cc(N3CCOC(c4ccccc4Cl)C3)nc(N3CCOCC3)n2)cn1 (centres unmarked) [Compound 337]
,,,,< 10 µM,< 1 µM,Nc1ccc(-c2cc(Nc3ccc4c(c3)OCCO4)nc(N3CCOCC3)n2)cn1 [Compound 386]
,< 1 µM,< 1 µM,,,,Nc1ncc(-c2cc(Nc3ccnc4cc(C(F)(F)F)ccc34)nc(N3CCOCC3)n2)cn1 [Compound 409]
,,,,< 10 µM,< 1 µM,Nc1ncc(-c2cc(NC(=O)[C@@H]3CCCO3)nc(N3CCOCC3)n2)cn1 [Compound 290]
,,,,< 25 µM,< 1 µM,NC(=O)c1ccnc(Nc2cc(-c3ccc(N)nc3)nc(N3CCOCC3)n2)c1 [Compound 348]
,,,,< 25 µM,< 10 µM,COc1ccc(CCNc2cc(-c3ccc(N)nc3)nc(N3CCOCC3)n2)cc1 [Compound 302]
,< 10 µM,< 1 µM,,,,CC(=O)N1CCC[C@H](Oc2cc(-c3cnc(N)cc3C(F)(F)F)nc(N3CCOCC3)n2)C1 [Compound 455]
,< 25 µM,< 1 µM,,,,Nc1cc(C(F)(F)F)c(-c2cc(Nc3ccc4c(c3)OCCO4)nc(N3CCOCC3)n2)cn1 [Compound 446]
,,,,< 10 µM,< 1 µM,Nc1ncc(-c2cc(-c3cccc4ncccc34)nc(N3CCOCC3)n2)cn1 [Compound 280]
,,,,< 10 µM,< 1 µM,Nc1ncc(-c2cc(Nc3ccccc3C(F)(F)F)nc(N3CCOCC3)n2)cn1 [Compound 393]
< 1 µM,< 1 µM,,,,,Nc1cc(C(F)(F)F)c(-c2cc(Nc3cnc4ccccc4c3)nc(N3CCOCC3)n2)cn1 [Compound 193]
,< 25 µM,< 1 µM,,,,Nc1ncc(-c2cc(CNC(=O)OC3CCOC3)nc(N3CCOCC3)n2)c(N)n1 (centres unmarked) [Compound 541]
,< 10 µM,< 1 µM,,,,Nc1ncc(-c2cc(N3CCc4ccccc4C3)nc(N3CCOCC3)n2)cn1 [Compound 403]
,< 25 µM,< 1 µM,,,,Cc1c(Cl)nc(N2CCOCC2)nc1-c1cnc(N)nc1 [Compound 483]
,< 10 µM,< 1 µM,,,,COc1cncc(-c2nc(N3CCOCC3)nc(-c3cnc(N)nc3)c2C)c1 [Compound 475]
,< 25 µM,< 1 µM,,,,N#Cc1cnc(N2CCOCC2)nc1-c1cnc(N)nc1 [Compound 418]
,,,,< 10 µM,< 1 µM,Nc1ccc(-c2cc(N3CCOc4ccccc43)nc(N3CCOCC3)n2)cn1 [Compound 387]
,,,,< 10 µM,< 1 µM,Nc1cc(C(F)(F)F)c(-c2cc(N3CCOC(c4ccc(C(F)(F)F)cc4)C3)nc(N3CCOCC3)n2)cn1 (centres unmarked) [Compound 334]
,< 10 µM,< 1 µM,,,,Nc1ncc(-c2cc(O[C@H]3CCOC3)nc(N3CCOCC3)n2)c(C(F)(F)F)n1 [Compound 530]
,< 10 µM,< 1 µM,,,,CC(C)(C)OC(=O)N1CCC(Oc2cc(-c3cnc(N)cc3C(F)(F)F)nc(N3CCOCC3)n2)CC1 [Compound 456]
,,,,< 25 µM,< 1 µM,CC(C)NC(=O)C1CN(c2cc(-c3cnc(N)cc3C(F)(F)F)nc(N3CCOCC3)n2)CCO1 (centres unmarked) [Compound 330]
,< 10 µM,< 1 µM,,,,Nc1cc(C(F)(F)F)c(-c2cc(O[C@H]3CCN(C(=O)c4ccccc4)C3)nc(N3CCOCC3)n2)cn1 [Compound 532]

# — patent US8217035B2, “Pyrimidine derivatives used as PI-3-kinase inhibitors” (Novartis AG, priority 2006, dated 2012)
